How the values were obtained:
Cdk2(R122C) (C177A) = biological target: T1, Cdk2(R122C) (C177A) (Homo sapiens, UniProt P24941, C177A/R122C); test: Kinetic thiol consumption assay with Cdk2 mutant R122C; type: binding; set-up: key to Rate enhancement, Cdk2 R122C: rate constant with Cdk2 ÷ rate constant with model thiol (fold); details: additional mutation C177A; for Rate constant with Cdk2 R122C: Protein: Cdk2, cysteine position R122C, in h-1
T1 construct: poly-histidine; made in house; host or cells: E. coli
How it was run: (§1)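 Thiol consumption was monitored kinetically using 5 μM Cdk2 (C177A plus one introduced cysteine) in degassed phosphate buffer at pH 8 with TCEP beads. Plates were kept 1 h at room temperature before fluorescence reading, and rate constants came from exponential decay fitting.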

Cdk2(S276C) (C177A) = biological target: T2, Cdk2(S276C) (C177A) (Homo sapiens, UniProt P24941, C177A/S276C); test: Kinetic thiol consumption assay with Cdk2 mutant S276C; type: binding; set-up: key to Rate enhancement, Cdk2 S276C: rate constant with Cdk2 ÷ rate constant with model thiol (fold); details: additional mutation C177A; for Rate constant with Cdk2 S276C: Protein: Cdk2, cysteine position S276C, in h^-1
T2 construct: poly-histidine; made in house; host or cells: E. coli
How it was run: as §1

Cdk2(N272C) (C177A) = biological target: T3, Cdk2(N272C) (C177A) (Homo sapiens, UniProt P24941, C177A/N272C); test: Kinetic thiol consumption assay with Cdk2 mutant N272C; type: binding; set-up: key to Rate enhancement, Cdk2 N272: rate constant with Cdk2 ÷ rate constant with model thiol (fold); details: for Rate enhancement, Cdk2 N272: Cdk2 N272, additional mutation C177A; for Rate constant with Cdk2 N272C: Protein: Cdk2, cysteine position N272C, additional mutation C177A, in h^-1
T3 construct: poly-histidine; made in house; host or cells: E. coli
How it was run: as §1

Cdk2(T182C) (C177A) = biological target: T4, Cdk2(T182C) (C177A) (Homo sapiens, UniProt P24941, C177A/T182C); test: Kinetic thiol consumption assay with Cdk2 mutant T182C; type: binding; set-up: key to Rate enhancement, Cdk2 T182C: rate constant with Cdk2 ÷ rate constant with model thiol (fold); details: additional mutation C177A; for Rate constant with Cdk2 T182C: Protein: Cdk2, cysteine position T182C, in h^-1
T4 construct: poly-histidine; made in house; host or cells: E. coli
How it was run: as §1

Cdk2(H71C) (C177A) = biological target: T5, Cdk2(H71C) (C177A) (Homo sapiens, UniProt P24941, C177A/H71C); test: Kinetic thiol consumption assay with Cdk2 mutant H71C; type: binding; set-up: key to Rate enhancement, Cdk2 H71C: rate constant with Cdk2 ÷ rate constant with model thiol (fold); details: additional mutation C177A; for Rate constant with Cdk2 H71C: Protein: Cdk2, cysteine position H71C, in h^-1
T5 construct: poly-histidine; made in house; host or cells: E. coli
How it was run: as §1

Cdk2(C177A, F80C) = biological target: T6, Cdk2(C177A, F80C) (Homo sapiens, UniProt P24941, C177A/F80C); test: Kinetic thiol consumption assay with Cdk2 mutant F80C, incl. kobs versus concentration (Kd, k2); type: binding; set-up: key to Rate enhancement, Cdk2 F80C: Cdk2 rate constant divided by model-thiol rate constant; details: additional mutation C177A; for Rate constant with Cdk2 F80C: Protein: Cdk2, cysteine position F80C, in h^-1
T6 construct: poly-histidine; made in house; host or cells: E. coli
How it was run: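 His-tagged Cdk2(C177A/F80C) from E. coli or model thiol, 5 μM in degassed phosphate buffer pH 8 with TCEP beads, reacted with acrylamide ligands; fluorescence (ex/em 380/470 nm) normalized to DMSO control and fitted to first-order decay for kobs. Kd and k2 obtained from hyperbolic fit of kobs versus ligand concentration.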

Cdk2(S181C) (C177A) = biological target: T7, Cdk2(S181C) (C177A) (Homo sapiens, UniProt P24941, C177A/S181C); test: Kinetic thiol consumption assay with Cdk2 mutant S181C; type: binding; set-up: key to Rate enhancement, Cdk2 S181C: rate constant with Cdk2 ÷ rate constant with model thiol (fold); details: additional mutation C177A; for Rate constant with Cdk2 S181C: Protein: Cdk2, cysteine position S181C, in h^-1
T7 construct: poly-histidine; made in house; host or cells: E. coli
How it was run: as §1

[1] = Kinetic thiol consumption assay with model thiol glutathione; type: physicochemical; set-up: Rate constant with glutathione (k(GSH)): unit not given here; details: for Rate constant with glutathione (k(GSH)): 500 μM ligand, 5 μM thiol, phosphate buffer pH 8; for Rate constant with Glutathione: Protein: Glutathione, cysteine position NA, in h-1
How it was run: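 GSH 5 μM, degassed phosphate buffer pH 8, TCEP beads 2% v/v; acrylamide added; RT, 1 h; fluorescence ex/em 380/470 nm; normalized to DMSO/thiol control; k from first-order exponential decay fit.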

Cdk2[C177A, F80C, K278C] = biological target: T8, Cdk2[C177A, F80C, K278C] (Homo sapiens, UniProt P24941, C177A/F80C/K278C); test: Kinetic thiol consumption assay with mutant Cdk2 as model thiol; type: binding; set-up: unit not given here; details: 500 μM ligand, 5 μM thiol, phosphate buffer pH 8
T8 construct: poly-histidine; made in house; host or cells: E. coli
How it was run: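 First-order rate constants were derived by exponential-decay fitting of DMSO/thiol-normalized fluorescence (380/470 nm) over time at room temperature. Thiol was 5 μM E. coli-expressed His-tagged Cdk2 mutant C177A/F80C/K278C in degassed pH 8 phosphate buffer containing 2% v/v TCEP beads.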

[2] = biological target: T9, human cyclin-dependent kinase 2 (Cdk2) (Homo sapiens, UniProt P24941); test: Kinetic thiol consumption assay with wild type Cdk2 (C177); type: binding; set-up: key to Rate enhancement, Cdk2 WT: k(Cdk2) divided by k(model thiol); Rate constant with Cdk2 (k(Cdk2)): unit not given here; details: for Rate constant with Cdk2 (k(Cdk2)): 500 μM ligand, 5 μM thiol, phosphate buffer pH 8; for Rate enhancement, Cdk2 WT: no additional mutations; for Rate constant with Cdk2 WT: Protein: Cdk2, cysteine position WT, in h^-1; for k(Cdk2)/k(Cdk2_mut) rate enhancement: model thiol Cdk2[C177A, F80C, K278C]; for k(Cdk2)/k(GSH) rate enhancement: model thiol glutathione
T9 construct: poly-histidine; made in house; host or cells: E. coli
How it was run: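 His-tagged human Cdk2 (single surface cysteine C177), expressed in E. coli, or a model thiol at 5 μM in degassed phosphate buffer pH 8 was pre-treated with immobilized TCEP beads (2% v/v) before acrylamide addition. Fluorescence (ex/em 380/470 nm) was read after 1 h at room temperature, normalized to DMSO/thiol-only control and plotted versus time.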

SMILES	Rate enhancement, Cdk2 R122C (Cdk2(R122C) (C177A))	Rate enhancement, Cdk2 S276C (Cdk2(S276C) (C177A))	Rate constant with Cdk2 S276C (Cdk2(S276C) (C177A))	Rate enhancement, Cdk2 N272 (Cdk2(N272C) (C177A))	Rate constant with Cdk2 N272C (Cdk2(N272C) (C177A))	Rate enhancement, Cdk2 T182C (Cdk2(T182C) (C177A))	Rate constant with Cdk2 T182C (Cdk2(T182C) (C177A))	Rate enhancement, Cdk2 H71C (Cdk2(H71C) (C177A))	Rate enhancement, Cdk2 F80C (Cdk2(C177A, F80C))	Rate constant with Cdk2 F80C (Cdk2(C177A, F80C))	Rate enhancement, Cdk2 S181C (Cdk2(S181C) (C177A))	Rate constant with Cdk2 S181C (Cdk2(S181C) (C177A))	Rate constant with glutathione (k(GSH)) [1]	Rate constant with Glutathione [1]	Rate constant with Cdk2[C177A, F80C, K278C] (k(Cdk2_mut)) (Cdk2[C177A, F80C, K278C])	Rate constant with Cdk2 (k(Cdk2)) [2]	Rate enhancement, Cdk2 WT [2]	Rate constant with Cdk2 WT [2]	k(Cdk2)/k(Cdk2_mut) rate enhancement [2]	k(Cdk2)/k(GSH) rate enhancement [2]	further results
C=CC(=O)N(CCCN1CCOCC1)Cc1ccncc1 [CA-192]	0.136	0.08092	0.001086	0.3716	0.004987	0.4571	0.006134	0.218	0.1157	0.001553	0.1475	0.00198	0.00676	0.01342	0.00447	0.00341	0.4352	0.00584	0.7625	0.5048	Rate constant with Cdk2 R122C (Cdk2(R122C) (C177A)): 0.001825; Rate constant with Cdk2 H71C (Cdk2(H71C) (C177A)): 0.002926
C=CC(=O)NCCNC(=O)C1CCCN1S(=O)(=O)c1ccccc1 (centres unmarked) [CA-224]	0	0.1717	0.0006465	0.5596	0.002107	1.292	0.004866	0.8417	0.1623	0.000611	0		0.00508	0.003765	0.00358	0.00155	0.4112	0.001548	0.4329	0.3045	Rate constant with Cdk2 H71C (Cdk2(H71C) (C177A)): 0.003169
C=CC(=O)NCc1ccc(C(=O)OC)cc1 [BN-65]	0	1.179	0.002789	0.9112	0.002156	0.8711	0.002061	0.538	2.644	0.006255	0.5182	0.001226	0.00292	0.002366	0.00398	0.00121	0.7866	0.001861	0.3031	0.4134	Rate constant with Cdk2 H71C (Cdk2(H71C) (C177A)): 0.001273
C=CC(=O)NCc1ccc(-c2ccccc2)cc1 [EL-1050]	0	0		0.1784	0.0005105	0.5328	0.001525	0	0		0.5143	0.001472	0.00204	0.002862	0.00126	0.00166	0.579	0.001657	1.317	0.813	
C=CC(=O)N1CC2CCN(Cc3ccccc3)C2C1 (centres unmarked) [CA-190]	0.501	0.3527	0.004934	0.2334	0.003265	0.8134	0.01138	0	0.3783	0.005293	0.2548	0.003565	0.01268	0.01399	0.00305	0.00347	0.248	0.003469	1.136	0.2735	Rate constant with Cdk2 R122C (Cdk2(R122C) (C177A)): 0.007009
C=CC(=O)N1CCCN(Cc2noc(C3CC3)n2)CC1 [CA-079]	0.4828	0.6649	0.006132	0.4916	0.004534	0.8366	0.007716	0.2998	0.1408	0.001299	4.96	0.04575	0.00593	0.009223	0.0021	0.00553	1.018	0.00939	2.634	0.9328	Rate constant with Cdk2 R122C (Cdk2(R122C) (C177A)): 0.004453; Rate constant with Cdk2 H71C (Cdk2(H71C) (C177A)): 0.002765
C=CC(=O)N1CC(n2cccn2)C1 [CA-173]	0.3379	1.187	0.01857	0.6511	0.01019	2.778	0.04347	0.1755	0.3401	0.005323	1.349	0.02111	0.01577	0.01565	0.00504	0.00754	0.4816	0.007537	1.495	0.4779	Rate constant with Cdk2 R122C (Cdk2(R122C) (C177A)): 0.005288; Rate constant with Cdk2 H71C (Cdk2(H71C) (C177A)): 0.002746

Source: patent US11415579B2, “Assay for measuring a rate of reaction between a target and a ligand candidate” (Imperial College Innovations Ltd., priority 2016, dated 2022)
